Laboratory results from patent US20200253196A1, “SOLVENTS FOR AGRICULTURAL APPLICATIONS AND PESTICIDE FORMULATIONS” (priority 2017, published 2020).

Test: Solubility of pesticides in solvents (pesticide powder added in 2% stepwise increments)
Assay type: physicochemical
Conditions: for Dissolving ability of Comparative Solvent B compared with Inventive Solvent 1: comparison Solvesso 150 vs ethyl 3-ethoxypropionate; for Dissolving ability of Comparative Solvent B compared with Inventive Solvent 1 / Dissolving ability of Comparative Solvent A compared with Inventive Solvent 1: in words; for Dissolving ability of Comparative Solvent A compared with Inventive Solvent 1: comparison xylene vs ethyl 3-ethoxypropionate; for Solubility in Comparative Solvent B: solvent Solvesso 150; for Solubility in Comparative Solvent B / Solubility in Inventive Solvent 1 / Solubility in Comparative Solvent A: concentration just prior to the one where the powder is not dissolved, no more than 2% lower than actual solubility; for Solubility in Inventive Solvent 1: solvent ethyl 3-ethoxypropionate; for Solubility in Comparative Solvent A: solvent xylene
Procedure: The solubility of various pesticides in these solvents are evaluated.
Each pesticide powder is added by solvent in 2% stepwise increments to the final pesticide concentration. Each pesticide reaches a concentration where the pesticide powder is not dissolved by the solvent.

SMILES: Cc1c(COC(=O)[C@@H]2[C@H](/C=C(\Cl)C(F)(F)F)C2(C)C)cccc1-c1ccccc1 (racemic) [Bifenthrin]
- Dissolving ability of Comparative Solvent B compared with Inventive Solvent 1: comparable dissolving ability
- Dissolving ability of Comparative Solvent A compared with Inventive Solvent 1: stronger dissolving ability
- Solubility in Comparative Solvent B: 44 weight %
- Solubility in Inventive Solvent 1: 43 weight %
- Solubility in Comparative Solvent A: 45 weight %

SMILES: CC(C)N1C(=O)N(c2ccccc2)CS/C1=N\C(C)(C)C [Buprofezin]
- Dissolving ability of Comparative Solvent B compared with Inventive Solvent 1: comparable dissolving ability
- Solubility in Comparative Solvent B: 16 weight %
- Solubility in Inventive Solvent 1: 18 weight %
- Solubility in Comparative Solvent A: 10 weight %

SMILES: CCOP(=S)(OCC)Oc1nc(Cl)c(Cl)cc1Cl [Chlopyrifos]
- Dissolving ability of Comparative Solvent A compared with Inventive Solvent 1: stronger dissolving ability
- Solubility in Comparative Solvent B: 54 weight %
- Solubility in Inventive Solvent 1: 63 weight %
- Solubility in Comparative Solvent A: 70 weight %

SMILES: CCCCC(C#N)(Cn1cncn1)c1ccc(Cl)cc1 (stereo not shown) [Myclobutanil]
- Solubility in Comparative Solvent B: 23 weight %
- Solubility in Inventive Solvent 1: 39 weight %
- Solubility in Comparative Solvent A: 27 weight %

SMILES: COC(=O)N(OC)c1ccccc1COc1ccn(-c2ccc(Cl)cc2)n1 [Pyraclostrobin]
- Solubility in Comparative Solvent B: 31 weight %
- Solubility in Inventive Solvent 1: 47 weight %
- Solubility in Comparative Solvent A: 42 weight %

SMILES: CC(C)(C)C(O)(CCc1ccc(Cl)cc1)Cn1cncn1 (stereo not shown) [Tebuconazole]
- Solubility in Comparative Solvent B: 2.0 weight %
- Solubility in Inventive Solvent 1: 16 weight %
- Solubility in Comparative Solvent A: 4.0 weight %

SMILES: CC(C)(C)C(=O)C(Oc1ccc(Cl)cc1)n1cncn1 (stereo not shown) [Triazolone]
- Solubility in Comparative Solvent B: 12 weight %
- Solubility in Inventive Solvent 1: 32 weight %
- Solubility in Comparative Solvent A: 23 weight %
